Laboratory results reported in patent US10988524B2, “Modified relaxin B chain peptides and their therapeutic use” (priority 2018, dated 2021).
Blank lines part the entries; values can stand above or below the molecule they belong to. Non-standard residues stand in square brackets, D forms with d. Residues, ends and D or L forms follow the SMILES beside them. αMeS = C[C@](N)(CO)C(=O)O; Nle = CCCC[C@H](N)C(=O)O; Aib = CC(C)(N)C(=O)O

Molecular target: T1, RXFP1 (Homo sapiens, UniProt Q9HBX9)
T1 sequence (Q9HBX9 1-757): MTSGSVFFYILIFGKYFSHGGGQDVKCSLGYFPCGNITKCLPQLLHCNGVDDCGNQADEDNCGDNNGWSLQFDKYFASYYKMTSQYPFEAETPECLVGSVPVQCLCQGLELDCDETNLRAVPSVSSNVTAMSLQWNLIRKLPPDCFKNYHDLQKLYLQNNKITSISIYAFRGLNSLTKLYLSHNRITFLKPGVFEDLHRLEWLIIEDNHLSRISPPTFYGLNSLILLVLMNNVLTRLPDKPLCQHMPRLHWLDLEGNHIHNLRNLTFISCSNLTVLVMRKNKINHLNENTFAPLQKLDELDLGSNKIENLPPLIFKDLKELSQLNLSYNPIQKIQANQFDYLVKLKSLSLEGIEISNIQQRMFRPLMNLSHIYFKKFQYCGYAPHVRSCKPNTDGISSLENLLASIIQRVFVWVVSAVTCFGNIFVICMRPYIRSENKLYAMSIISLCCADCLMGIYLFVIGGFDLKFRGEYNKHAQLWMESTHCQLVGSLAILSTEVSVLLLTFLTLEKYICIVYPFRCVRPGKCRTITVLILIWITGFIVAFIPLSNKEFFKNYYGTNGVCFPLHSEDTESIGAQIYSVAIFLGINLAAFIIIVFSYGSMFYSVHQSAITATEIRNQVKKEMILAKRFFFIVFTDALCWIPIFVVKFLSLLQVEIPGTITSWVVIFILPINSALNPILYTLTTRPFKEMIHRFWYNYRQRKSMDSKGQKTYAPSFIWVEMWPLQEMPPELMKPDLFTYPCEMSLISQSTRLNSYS
Assay: OVCAR5 cAMP assay (RXFP1 agonist activity, HTRF)
Details: OVCAR-5, read-out: cAMP assay in OVCAR 5 cells Emax, maximal intracellular cAMP relative to H2-relaxin in the same test occasion

Structure (SMILES): CCCC[C@H](NC(=O)CNC(=O)[C@H](CCC(=O)O)NC(=O)C(C)(C)NC(=O)C(C)(C)NC(=O)[C@@H](NC(=O)[C@H](CCCCNC(C)=O)NC(=O)[C@H](C)NC(=O)[C@H](CCCNC(=N)N)NC(=O)[C@@H](NC(=O)[C@H](CCCCN)NC(=O)[C@H](CCC(=O)O)NC(=O)[C@H](CCCNC(=N)N)NC(=O)CNC(=O)[C@H](CCC(=O)O)NC(=O)[C@H](CC(C)C)NC(C)=O)C(C)C)[C@@H](C)CC)C(=O)N[C@@H](CO)C(=O)N[C@H](C(=O)N[C@@H](Cc1c[nH]c2ccccc12)C(=O)N[C@@](C)(CO)C(=O)NC(C)(C)C(=O)N[C@@H](CCCNC(=N)N)C(=O)N[C@@H](CCCCN)C(=O)N[C@@H](CCCCNC(C)=O)C(N)=O)[C@@H](C)O [compound 30] (Ac-LEGREKVRAK(Ac)I[Aib][Aib]EG[Nle]STW[αMeS][Aib]RKK(Ac)-NH2)
Emax: 93%

Structure (SMILES): CCCC[C@H](NC(=O)CNC(=O)[C@H](CCC(=O)O)NC(=O)C(C)(C)NC(=O)C(C)(C)NC(=O)[C@@H](NC(=O)[C@H](CCC(N)=O)NC(=O)[C@H](C)NC(=O)[C@H](CCCNC(=N)N)NC(=O)[C@@H](NC(=O)[C@H](CCCCN)NC(=O)[C@H](CCC(=O)O)NC(=O)[C@H](CCCNC(=N)N)NC(=O)CNC(=O)[C@H](CCC(=O)O)NC(=O)[C@H](CC(C)C)NC(C)=O)C(C)C)[C@@H](C)CC)C(=O)N[C@@H](CO)C(=O)N[C@H](C(=O)N[C@@H](Cc1c[nH]c2ccccc12)C(=O)N[C@@H](C)C(=O)NC(C)(C)C(=O)N[C@@H](CCCNC(=N)N)C(=O)N[C@@H](CCCCN)C(=O)N[C@@H](CCCCN)C(N)=O)[C@@H](C)O [compound 22] (Ac-LEGREKVRAQI[Aib][Aib]EG[Nle]STWA[Aib]RKK-NH2)
Emax: 102%

Structure (SMILES): CC[C@H](C)[C@H](NC(=O)[C@H](CCC(N)=O)NC(=O)[C@H](C)NC(=O)[C@H](CCCNC(=N)N)NC(=O)[C@@H](NC(=O)[C@H](CCCCN)NC(=O)[C@H](CCC(=O)O)NC(=O)[C@H](CCCNC(=N)N)NC(=O)CNC(=O)[C@H](CCC(=O)O)NC(=O)[C@H](CC(C)C)NC(C)=O)C(C)C)C(=O)NC(C)(C)C(=O)NC(C)(C)C(=O)N[C@@H](CCC(=O)O)C(=O)NCC(=O)N[C@@H](CCC(N)=O)C(=O)N[C@@H](CO)C(=O)N[C@H](C(=O)N[C@@H](Cc1c[nH]c2ccccc12)C(=O)N[C@@H](CO)C(=O)NC(C)(C)C(=O)N[C@@H](CCCNC(=N)N)C(=O)N[C@@H](CCCCN)C(=O)N[C@@H](CCCCN)C(N)=O)[C@@H](C)O [compound 35] (Ac-LEGREKVRAQI[Aib][Aib]EGQSTWS[Aib]RKK-NH2)
Emax: 98%

Next, values leading:

Emax: 102%
Structure (SMILES): CC[C@H](C)[C@H](NC(=O)[C@H](CCC(N)=O)NC(=O)[C@H](C)NC(=O)[C@H](CCCNC(=N)N)NC(=O)[C@@H](NC(=O)[C@H](CCCCN)NC(=O)[C@H](CCC(=O)O)NC(=O)[C@H](CCCNC(=N)N)NC(=O)CNC(=O)[C@H](CCC(=O)O)NC(=O)[C@H](CC(C)C)NC(C)=O)C(C)C)C(=O)NC(C)(C)C(=O)NC(C)(C)C(=O)N[C@@H](CCC(=O)O)C(=O)NCC(=O)N[C@@H](CCSC)C(=O)N[C@@H](CO)C(=O)N[C@@H](CCCCN)C(=O)N[C@@H](Cc1c[nH]c2ccccc12)C(=O)N[C@@H](CO)C(=O)N[C@@H](CCCCN)C(=O)N[C@@H](CCCNC(=N)N)C(N)=O [compound 38] (Ac-LEGREKVRAQI[Aib][Aib]EGMSKWSKR-NH2)

Emax: 104%
Structure (SMILES): CC[C@H](C)[C@H](NC(=O)[C@H](CCC(N)=O)NC(=O)[C@H](C)NC(=O)[C@H](CCCNC(=N)N)NC(=O)[C@@H](NC(=O)[C@H](CCCCN)NC(=O)[C@H](CCC(=O)O)NC(=O)[C@H](CCCNC(=N)N)NC(=O)CNC(=O)[C@H](CCC(=O)O)NC(=O)[C@H](CC(C)C)NC(C)=O)C(C)C)C(=O)NC(C)(C)C(=O)NC(C)(C)C(=O)N[C@@H](CCC(=O)O)C(=O)NCC(=O)N[C@@H](CCSC)C(=O)N[C@@H](CO)C(=O)N[C@@H](CCCCN)C(=O)N[C@@H](Cc1c[nH]c2ccccc12)C(=O)N[C@@H](CO)C(=O)NC(C)(C)C(=O)N[C@@H](CCCNC(=N)N)C(=O)N[C@@H](CCCCN)C(N)=O [compound 18] (Ac-LEGREKVRAQI[Aib][Aib]EGMSKWS[Aib]RK-NH2)
